Five molecules from EP4039094A1, “NOVEL ANTIFUNGAL COMPOUNDS” (Max-Planck-Gesellschaft zur Förderung der Wissenschaften …, priority 2021, dated 2022) can be followed below.

In assay [1] the target is T1, Stp1/Stp4/Stp3 subcomplex (Mycosarcoma maydis, UniProt A0A0D1C5E3+A0A0D1CU07+A0A0D1EAN2).
T1 sequence (A0A0D1CU07 29-515): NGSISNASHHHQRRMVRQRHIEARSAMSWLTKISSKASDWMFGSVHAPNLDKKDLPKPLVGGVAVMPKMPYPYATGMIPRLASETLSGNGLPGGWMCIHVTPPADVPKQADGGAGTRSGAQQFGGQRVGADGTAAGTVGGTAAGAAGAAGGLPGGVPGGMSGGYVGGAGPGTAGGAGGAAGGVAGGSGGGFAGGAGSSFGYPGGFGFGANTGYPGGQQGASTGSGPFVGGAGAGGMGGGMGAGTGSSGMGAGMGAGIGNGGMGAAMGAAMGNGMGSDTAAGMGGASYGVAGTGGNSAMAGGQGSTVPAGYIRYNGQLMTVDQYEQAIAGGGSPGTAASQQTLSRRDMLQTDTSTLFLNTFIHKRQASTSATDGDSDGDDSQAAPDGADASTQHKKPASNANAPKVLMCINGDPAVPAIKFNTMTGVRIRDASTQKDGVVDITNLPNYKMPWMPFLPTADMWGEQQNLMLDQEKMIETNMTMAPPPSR
T1 sequence (A0A0D1C5E3 24-129): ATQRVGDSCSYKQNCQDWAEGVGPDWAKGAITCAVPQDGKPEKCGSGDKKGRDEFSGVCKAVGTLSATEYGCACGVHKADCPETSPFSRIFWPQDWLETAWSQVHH
T1 sequence (A0A0D1EAN2 25-327): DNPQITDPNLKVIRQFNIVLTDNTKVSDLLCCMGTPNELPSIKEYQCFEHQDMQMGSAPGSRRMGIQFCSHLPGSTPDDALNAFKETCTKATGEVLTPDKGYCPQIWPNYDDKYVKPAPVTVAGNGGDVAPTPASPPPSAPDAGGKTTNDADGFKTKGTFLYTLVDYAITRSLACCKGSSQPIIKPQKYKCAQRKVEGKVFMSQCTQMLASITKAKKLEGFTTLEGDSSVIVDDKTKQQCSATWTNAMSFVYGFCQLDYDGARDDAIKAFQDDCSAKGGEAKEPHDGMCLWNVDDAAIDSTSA
Nature of the assay: Alamar Blue viability assay in S. cerevisiae 2-hybrid strain NL73 (viability depends on Stp complex formation). It counts as cell-based, U. maydis. The conditions noted are these: for activity in the Alamar Blue assay with NL73: result in words. An excerpt: To develop a screening platform based on Stp complex formation, a Saccharomyces cerevisiae 2-hybrid system was used. […] After co-transformation, reporter gene transcription is activated only if the two fusion proteins interact in the yeast nucleus. Moreover, the S. cerevisiae strain AH109 harbours the reporter genes ADE2 and HIS3, which encode for two enzymes that are crucial for adenine (Ade) and histidine (His) biosynthesis and thereby enable nutritional selection as a read-out for the interaction between proteins. In the following experiments, growth on high-stringency synthetic defined (SD) medium (SD -Leu -Trp -Ade -His) was used to identify if the complex members interact between them causing expression of ADE2 and HIS3. Additionally, strains were also grown on low-stringency medium (SD -Leu -Trp) to confirm their viability. […] All experiments were done with three independent transformants to exclude false positives due to spontaneous mutations.
The S. cerevisiae strain AH109 from Clontech (Saint-Germain-en-Laye, France) is auxotrophic for tryptophan, leucine, adenine and histidine. In addition, lacz is under control of the MEL1 UAS to be used as readout for quantitative β-galactosidase assays.
The resulting test strain NL73 (AD-Stp4/BD-Stp1/myc-Stp3) expresses the Stp1/Stp4/Stp3 subcomplex. NL73 carries the following three plasmids: pGBKT7-stp1: pGBKT7 vector expressing proteins fused to the GAL4 DNA binding domain (DNA-BD). pGBKT7 also contains the T7 promoter, a c-Myc epitope tag, and a MCS. The vector carries a Kanamycin resistance gene (Kanr) for selection in E. coli and the TRP1 nutritional marker for selection in yeast. pGAD-stp4: pGADT7 vector expressing proteins fused to a GAL4 activation domain (AD). The GAL4 AD fusion contains an N-terminal nuclear localization signal that targets the protein to the yeast nucleus, and a HA Tag, located between the GAL4 AD and the protein of interest. The vector carries an ampicillin resistance gene (Ampr) for selection in E. coli and a LEU2 nutritional marker for selection in yeast. pYEA-stp3-myc: pYEA vector expressing proteins under the control of the phosphoglycerate kinase promoter. The vector carries an ampicillin resistance gene (Ampr) for selection in E. coli and an ADE2 nutritional marker for selection in yeast. As control strain, NL70 containing empty vectors was generated (AH109Δabc9 pGAD::LEU2 pGBK::TRP1 pYEA::ADE2).
After that, 25 µl of NL73 cell suspension were dispensed into the assay plates using Multidrop Combi (Thermofisher Scientific) giving a final screening concentration of 10 µM. One column of the assay plate was filled with 25 µl of NL70 control strain cell suspension as negative control. Plates were sealed with Breathe-Easy sealing membrane (Sigma, Z380059), lidded and incubated in a humid chamber over night at 30°C and 140 rpm in an HT Multitron Pro (Infors). […] For the viability assay, the alamar Blue HS Cell Viability reagent (Invitrogen, #A50101) was pre-diluted using an equal amount of dVE-H2O and 5 µl of diluted Alamar Blue were added to the screening plates using Multidrop Combi. The plates were sealed again and incubated for 4 h at room temperature, unlidded. […] Screening data was normalized to DMSO-treated NL73 cells (that received DMSO in the same concentration as in samples where compounds dissolved in DMSO were added) being 100% and DMSO-treated NL70 cells representing 0% viability and analyzed with Quattro Software Suite (Quattro Research GmbH).
Background: Resazurin is reduced to fluorescent resorufin, in cell work by metabolically active cells.

For assay [2], the system named is U. maydis strains FB1 and FB2. Nature of the assay: Maize seedling infection model, compound added to inoculum, symptom scoring 12 dpi. It counts as in vivo, Ustilago maydis. Also on record: key to Severity of disease symptoms First infection / Severity of disease symptoms Second infection: Full virulence is symbolized by (XXXXX); XXX - slightly reduced virulence; XX - reduced virulence; x - strongly reduced virulence. The settings on record: for virulence of U. maydis: 5 mM final concentration in the inoculum of FB1xFB2, first test of ten hits; for Severity of disease symptoms First infection: 4-7 plants per assay; for Retesting for an inhibition of virulence: U. maydis, retest of four compounds; for inhibitory effect on virulence of U. maydis: 1 mM, 0.5 mM and 0.1 mM final concentration in the inoculum (Figure 2C). On the procedure:
Compounds to be tested were added to the inoculum. Briefly, 6 day old maize seedlings were syringe-infected with about 0.5 ml of fungal suspension in H2O which was amended with the hit compound. The infection and symptoms assessment were done as described in Kämper et al., (Insights from the genome of the biotrophic fungal plant pathogen Ustilago maydis. Nature 2006, 444, 97-101). During the syringe-infection into the stem, the fungal-compound mix is dispersed between the rolled-up leaves and fills the leaf whorl. The compounds were applied only at the stage of mixing with the inoculum, which is subsequently diluted with existing apoplastic fluid, during the infection. In addition, compounds have to reach the Stp complex in biotrophic hyphae from the initial inoculum. […] Since compounds are dissolved in DMSO, the tolerance of U. maydis towards DMSO was tested by adding DMSO to the inoculum at concentrations between 10 and 50% final concentration.
Symptom scoring was done 12 days post infection (dpi) in case of U. maydis seedling infections. Symptom scoring occurred according to the categories described in Table 2. Table 2: Categories of virulence symptoms of U. maydis maize seedling infection (according to Kämper et al., 2006).

[3] abbreviates: 5 mM hit compound added to inoculum of FB1xFB2, Zea mays.
Setting [4] is: NL73 strain, Table 5, read-out: A-blue IC50.
The mark [5] stands for this setting: 1 mM final concentration in the inoculum of Zea Mays (Figure 2A, B).

Entries after “also recorded” stand apart in the source; their conditions may differ. Like-named read-outs stand apart in the source and are kept apart here.

In the case of `Cc1ccc(CSc2nc(=O)n(C3CCCC3)c3c2CCC3)cc1` [Compound 1-C], the IC50 – broadly, the midpoint of a concentration-inhibition curve – in assay [1] (inhibitory activity on NL73 viability, Table 6, read-out: IC50) was determined as 670 nM. Moreover, the “activity in the Alamar Blue assay with NL73” value in assay [1] is reported as “active in the nanomolar range”. Moreover, in assay [2], the “virulence of U. maydis” value is “significant reductions in virulence” and the “Retesting for an inhibition of virulence” value is on record as “confirmed the results”. Further, in assay [2] (setting [3]), the “Severity of disease symptoms First infection” value was “XXX”. The “Severity of disease symptoms Second infection” value in assay [2] (5 mM hit compound added to inoculum of FB1xFB2, Zea mays, retest) is “XXX”. Also, the “Virulence inhibition of U. maydis” value in assay [2] (dilution series between 5 mM and 0.01 mM final concentration (Figure 5)) was “concentration dependent; also recorded: strong inhibitory activity”.

For the molecule `O=[N+]([O-])c1ccc(-c2c(-c3ccccc3)n3ccccc3[n+]2[O-])cc1` [Compound 3-A], the 50% inhibitory concentration (IC50) in assay [1] (setting [4]) worked out at 250 nM. Further, the “Virulence inhibition of U. maydis” value in assay [2] (setting [5]) is recorded as “only mildly”.

For the molecule `Cc1ccc(-c2c(-c3ccc(C)cc3)[n+]([O-])c3ccccn23)cc1` [Compound 1-A], in assay [1] (setting [4]), the IC50 came out at 140 nM. Also, in assay [1], the “activity in the Alamar Blue assay with NL73” value is reported as “nanomolar potency”. The “Virulence inhibition of U. maydis” value in assay [2] (setting [5]) was “able to reduce virulence”. Further, in assay [2], the “inhibitory effect on virulence of U. maydis” value is “concentration dependent inhibitory effect”, the “virulence of U. maydis” value is “significant reductions in virulence” and the “Retesting for an inhibition of virulence” value is listed as “confirmed the results”.

For `CC(C)n1ncc2cc(NS(=O)(=O)c3cc(F)ccc3F)cnc21` [Compound 1-B], the half-inhibitory concentration (IC50) in assay [1] (read-out: IC50 in the Alamar Blue viability assay of NL73) is 2500 nM. Besides, the “Virulence inhibition of U. maydis” value in assay [2] (0.5 mM final concentration, dilution series (Figure 7)) was “negligible”; in assay [2] (1 mM final concentration, dilution series (Figure 7)), “very strong; also recorded: very strongly”; in assay [2] (5 mM final concentration, dilution series (Figure 7)), “very strong; also recorded: very strongly”. In assay [2], the “virulence of U. maydis” value was “significant reductions in virulence”. Also, in assay [2] (setting [3]), the “Severity of disease symptoms First infection” value is reported as “XX”. Besides, in assay [2], the “Retesting for an inhibition of virulence” value is recorded as “confirmed the results”.

`[O-][n+]1c(-c2ccc(C(F)(F)F)cc2)c(-c2ccc(C(F)(F)F)cc2)n2ccccc21` [Compound 2-A]: the IC50 in assay [1] (setting [4]) stood at 20 nM. The “Virulence inhibition of U. maydis” value in assay [2] (setting [5]) is “able to reduce virulence”. The “inhibitory effect on virulence of U. maydis” value in assay [2] is given as “concentration dependent inhibitory effect”.
